Experimental data from patent publication US20020137929A1, “1 - (3-heterocyclylphenyl) isothiourea, -isourea, -guanidine and -amidine herbicidal agents” (Intellectual Property Department, BASF Aktiengesellschaft, priority 1998, published 2002).

Columns and labels:
ZEAMX (Corn, Field) = assay: Postemergence herbicidal evaluation; format: in vivo, Zea mays; settings: postemergence
How it was run: (§1)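 Young plants, roughly two weeks from seeding, receive the active ingredient as a sprayed dispersion (acetone/water 50/50, 0.5% TWEEN 20) at 40 psi. Doses span about 0.0156 to 0.500 kg/ha. A visual score from 0 to 9 compares treated with control plants four to five weeks on.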

SETVI (Foxtail, Green) [1] = assay: Preemergence herbicidal evaluation; format: in vivo, Setaria viridis; settings: rated 4-5 weeks after treatment
How it was run: (§2)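 Seeds were planted in potting soil in cups, then sprayed preemergence with the test compound in aqueous acetone at about 0.0156 to 0.500 kg per hectare. Cups were kept under greenhouse conditions and visually rated 4–5 weeks after treatment on a 0–9 scale against an untreated control.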

SETVI (Foxtail, Green) [2] = assay: Postemergence herbicidal evaluation; format: in vivo, Setaria viridis; settings: postemergence
How it was run: as §1

ORYSAT (Rice, Tebonnet) = assay: Postemergence herbicidal evaluation; format: in vivo, Oryza sativa, (L.) Tebonnet; settings: postemergence
How it was run: as §1

[3] = test system: GLXMAW (Soybean, Williams); assay: Postemergence herbicidal evaluation; format: in vivo, Glycine max, (L.) Merr. cv Williams; settings: postemergence
How it was run: as §1

AMBEL (Ragweed, Common) = assay: Preemergence herbicidal evaluation; format: in vivo, Ambrosia artemisifolia; settings: rated 4-5 weeks after treatment
How it was run: as §2

CYPIR (Rice Flatsedge) = assay: Preemergence weed control under flooded paddy conditions; format: in vivo, Cyperus iria; settings: rated 3-4 weeks after treatment
How it was run: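 Flooded-pot preemergence screen with silt loam and seeds in the upper 0.5 cm. Dose about 0.0313 to 0.500 kg/ha, delivered into flood water; visual 0-9 score after 3 to 4 weeks.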

[4] = test system: TRZAWR (Wheat, Winter, cv Riband); assay: Postemergence herbicidal evaluation; format: in vivo, Triticum aestivum; settings: postemergence
How it was run: as §1

[5] = test system: CHEAL (Lambsquarters, Common); assay: Postemergence herbicidal evaluation; format: in vivo, Chenopodium album; settings: postemergence
How it was run: as §1

ABUTH (Velvetleaf) = assay: Postemergence herbicidal evaluation; format: in vivo, Abutilon theophrasti; settings: postemergence
How it was run: as §1

GALAP (Galium) = assay: Preemergence herbicidal evaluation; format: in vivo, Galium aparine; settings: rated 4-5 weeks after treatment
How it was run: as §2

[6] = rate 0.0156 kg/ha, rating scale 0-9
[7] = rate 0.0313 kg/ha, rating scale 0-9
[8] = rate 0.0625 kg/ha, rating scale 0-9
[9] = rate 0.1250 kg/ha, rating scale 0-9
[10] = rate 0.2500 kg/ha, rating scale 0-9

## Cn1c(C(F)(F)F)cc(=O)n(-c2cc(N=C3SCC(=O)N3Cc3ccc(F)cc3)c(Cl)cc2F)c1=O [Compound 151, 3-{4-Chloro-2-fluoro-5-{[3-(p-fluorobenzyl)-4-oxo-2-thiazolidinylidene]amino}phenyl}-1-methyl-6-(trifluoromethyl)-2,4(1H,3H)-pyrimidinedione]
ZEAMX (Corn, Field); rate 0.0156 kg/ha
  Herbicidal rating ZEAMX: 4.0
ZEAMX (Corn, Field); rate 0.0313 kg/ha
  Herbicidal rating ZEAMX: 4.5
ZEAMX (Corn, Field); rate 0.0625 kg/ha
  Herbicidal rating ZEAMX: 5.0
SETVI (Foxtail, Green) [1]; [6]
  Preemergence herbicidal rating SETVI: 9.0
SETVI (Foxtail, Green) [1]; [7]
  Preemergence herbicidal rating SETVI: 9.0
SETVI (Foxtail, Green) [1]; [8]
  Preemergence herbicidal rating SETVI: 9.0
SETVI (Foxtail, Green) [1]; [9]
  Preemergence herbicidal rating SETVI: 9.0
SETVI (Foxtail, Green) [1]; [10]
  Preemergence herbicidal rating SETVI: 9.0
SETVI (Foxtail, Green) [2]; rate 0.0156 kg/ha
  Herbicidal rating SETVI: 5.0
SETVI (Foxtail, Green) [2]; rate 0.0313 kg/ha
  Herbicidal rating SETVI: 5.0
SETVI (Foxtail, Green) [2]; rate 0.0625 kg/ha
  Herbicidal rating SETVI: 9.0
ORYSAT (Rice, Tebonnet); rate 0.0156 kg/ha
  Herbicidal rating ORYSAT: 2.0
ORYSAT (Rice, Tebonnet); rate 0.0313 kg/ha
  Herbicidal rating ORYSAT: 2.5
ORYSAT (Rice, Tebonnet); rate 0.0625 kg/ha
  Herbicidal rating ORYSAT: 3.5
[3]; rate 0.0156 kg/ha
  Herbicidal rating GLXMAW: 4.0
[3]; rate 0.0313 kg/ha
  Herbicidal rating GLXMAW: 4.5
[3]; rate 0.0625 kg/ha
  Herbicidal rating GLXMAW: 5.5
AMBEL (Ragweed, Common); [6]
  Preemergence herbicidal rating AMBEL: 1.0
AMBEL (Ragweed, Common); [7]
  Preemergence herbicidal rating AMBEL: 7.0
AMBEL (Ragweed, Common); [8]
  Preemergence herbicidal rating AMBEL: 9.0
AMBEL (Ragweed, Common); [9]
  Preemergence herbicidal rating AMBEL: 9.0
AMBEL (Ragweed, Common); [10]
  Preemergence herbicidal rating AMBEL: 9.0
CYPIR (Rice Flatsedge); 0.0313 kg/ha
  herbicidal effect rating, CYPIR: 0.0
CYPIR (Rice Flatsedge); 0.0625 kg/ha
  herbicidal effect rating, CYPIR: 2.0
CYPIR (Rice Flatsedge); 0.1250 kg/ha
  herbicidal effect rating, CYPIR: 6.0
CYPIR (Rice Flatsedge); 0.2500 kg/ha
  herbicidal effect rating, CYPIR: 8.0
[4]; rate 0.0156 kg/ha
  Herbicidal rating TRZAWR: 2.5
[4]; rate 0.0313 kg/ha
  Herbicidal rating TRZAWR: 2.5
[4]; rate 0.0625 kg/ha
  Herbicidal rating TRZAWR: 4.0
[5]; rate 0.0156 kg/ha
  Herbicidal rating CHEAL: 9.0
[5]; rate 0.0313 kg/ha
  Herbicidal rating CHEAL: 7.0
[5]; rate 0.0625 kg/ha
  Herbicidal rating CHEAL: 9.0
ABUTH (Velvetleaf); rate 0.0156 kg/ha
  Herbicidal rating ABUTH: 9.0
ABUTH (Velvetleaf); rate 0.0313 kg/ha
  Herbicidal rating ABUTH: 9.0
ABUTH (Velvetleaf); rate 0.0625 kg/ha
  Herbicidal rating ABUTH: 9.0
GALAP (Galium); [6]
  Preemergence herbicidal rating GALAP: 2.0
GALAP (Galium); [7]
  Preemergence herbicidal rating GALAP: 4.0
GALAP (Galium); [8]
  Preemergence herbicidal rating GALAP: 4.0
GALAP (Galium); [9]
  Preemergence herbicidal rating GALAP: 9.0
GALAP (Galium); [10]
  Preemergence herbicidal rating GALAP: 9.0

## CCOC(=O)CN1C(=O)C(Br)SC1=Nc1cc(-n2c(=O)cc(C(F)(F)F)n(C)c2=O)c(F)cc1Cl (centres unmarked) [Compound 153, Ethyl 5-bromo-2-[{2-chloro-5-[3,6-dihydro-3-methyl-2,6-dioxo-4-(trifluoromethyl)-1(2H)-pyrimidinyl]-4-fluorophenyl}imino}-4-oxo-3-thiazolidineacetate]
ZEAMX (Corn, Field); rate 0.0156 kg/ha
  Herbicidal rating ZEAMX: 3.0
ZEAMX (Corn, Field); rate 0.0313 kg/ha
  Herbicidal rating ZEAMX: 3.5
ZEAMX (Corn, Field); rate 0.0625 kg/ha
  Herbicidal rating ZEAMX: 4.5
SETVI (Foxtail, Green) [1]; [9]
  Preemergence herbicidal rating SETVI: 1.0
SETVI (Foxtail, Green) [1]; [10]
  Preemergence herbicidal rating SETVI: 0.0
SETVI (Foxtail, Green) [2]; rate 0.0156 kg/ha
  Herbicidal rating SETVI: 0.0
SETVI (Foxtail, Green) [2]; rate 0.0313 kg/ha
  Herbicidal rating SETVI: 0.0
SETVI (Foxtail, Green) [2]; rate 0.0625 kg/ha
  Herbicidal rating SETVI: 0.0
ORYSAT (Rice, Tebonnet); rate 0.0156 kg/ha
  Herbicidal rating ORYSAT: 1.5
ORYSAT (Rice, Tebonnet); rate 0.0313 kg/ha
  Herbicidal rating ORYSAT: 1.5
ORYSAT (Rice, Tebonnet); rate 0.0625 kg/ha
  Herbicidal rating ORYSAT: 1.5
[3]; rate 0.0156 kg/ha
  Herbicidal rating GLXMAW: 3.5
[3]; rate 0.0313 kg/ha
  Herbicidal rating GLXMAW: 4.0
[3]; rate 0.0625 kg/ha
  Herbicidal rating GLXMAW: 4.0
AMBEL (Ragweed, Common); [9]
  Preemergence herbicidal rating AMBEL: 0.0
AMBEL (Ragweed, Common); [10]
  Preemergence herbicidal rating AMBEL: 1.0
CYPIR (Rice Flatsedge); 0.0625 kg/ha
  herbicidal effect rating, CYPIR: 0.0
CYPIR (Rice Flatsedge); 0.1250 kg/ha
  herbicidal effect rating, CYPIR: 0.0
CYPIR (Rice Flatsedge); 0.2500 kg/ha
  herbicidal effect rating, CYPIR: 3.0
[4]; rate 0.0156 kg/ha
  Herbicidal rating TRZAWR: 2.0
[4]; rate 0.0313 kg/ha
  Herbicidal rating TRZAWR: 2.0
[4]; rate 0.0625 kg/ha
  Herbicidal rating TRZAWR: 3.0
[5]; rate 0.0156 kg/ha
  Herbicidal rating CHEAL: 0.0
[5]; rate 0.0313 kg/ha
  Herbicidal rating CHEAL: 1.0
[5]; rate 0.0625 kg/ha
  Herbicidal rating CHEAL: 1.0
ABUTH (Velvetleaf); rate 0.0156 kg/ha
  Herbicidal rating ABUTH: 1.0
ABUTH (Velvetleaf); rate 0.0313 kg/ha
  Herbicidal rating ABUTH: 1.0
ABUTH (Velvetleaf); rate 0.0625 kg/ha
  Herbicidal rating ABUTH: 5.0
GALAP (Galium); [9]
  Preemergence herbicidal rating GALAP: 0.0
GALAP (Galium); [10]
  Preemergence herbicidal rating GALAP: 1.0

## CCN1C(=O)CSC1=Nc1cc(-n2c(=O)cc(C(F)(F)F)n(C)c2=O)c(F)cc1Cl [Compound 159, 3-{4-Chloro-5-[(3-ethyl-4-oxo-2-thiazolidinyl-idene)amino]-2-fluorophenyl}-1-methyl-6-(trifluoromethyl)-2,4(1H,3H)-pyrimidinedione]
ZEAMX (Corn, Field); rate 0.0156 kg/ha
  Herbicidal rating ZEAMX: 5.0
ZEAMX (Corn, Field); rate 0.0313 kg/ha
  Herbicidal rating ZEAMX: 6.5
ZEAMX (Corn, Field); rate 0.0625 kg/ha
  Herbicidal rating ZEAMX: 7.0
SETVI (Foxtail, Green) [1]; 0.0156 kg/ha
  Preemergence herbicidal rating SETVI: 1.0
SETVI (Foxtail, Green) [1]; 0.0313 kg/ha
  Preemergence herbicidal rating SETVI: 8.0
SETVI (Foxtail, Green) [1]; 0.0625 kg/ha
  Preemergence herbicidal rating SETVI: 7.0
SETVI (Foxtail, Green) [1]; 0.1250 kg/ha
  Preemergence herbicidal rating SETVI: 9.0
SETVI (Foxtail, Green) [1]; 0.2500 kg/ha
  Preemergence herbicidal rating SETVI: 7.0
SETVI (Foxtail, Green) [2]; rate 0.0156 kg/ha
  Herbicidal rating SETVI: 1.0
SETVI (Foxtail, Green) [2]; rate 0.0313 kg/ha
  Herbicidal rating SETVI: 2.0
SETVI (Foxtail, Green) [2]; rate 0.0625 kg/ha
  Herbicidal rating SETVI: 7.0
ORYSAT (Rice, Tebonnet); rate 0.0156 kg/ha
  Herbicidal rating ORYSAT: 1.5
ORYSAT (Rice, Tebonnet); rate 0.0313 kg/ha
  Herbicidal rating ORYSAT: 2.0
ORYSAT (Rice, Tebonnet); rate 0.0625 kg/ha
  Herbicidal rating ORYSAT: 2.0
[3]; rate 0.0156 kg/ha
  Herbicidal rating GLXMAW: 5.0
[3]; rate 0.0313 kg/ha
  Herbicidal rating GLXMAW: 5.5
[3]; rate 0.0625 kg/ha
  Herbicidal rating GLXMAW: 7.0
AMBEL (Ragweed, Common); 0.0156 kg/ha
  Preemergence herbicidal rating AMBEL: 1.0
AMBEL (Ragweed, Common); 0.0313 kg/ha
  Preemergence herbicidal rating AMBEL: 3.0
AMBEL (Ragweed, Common); 0.0625 kg/ha
  Preemergence herbicidal rating AMBEL: 4.0
AMBEL (Ragweed, Common); 0.1250 kg/ha
  Preemergence herbicidal rating AMBEL: 6.0
AMBEL (Ragweed, Common); 0.2500 kg/ha
  Preemergence herbicidal rating AMBEL: 8.0
CYPIR (Rice Flatsedge); 0.0313 kg/ha
  herbicidal effect rating, CYPIR: 0.0
CYPIR (Rice Flatsedge); 0.0625 kg/ha
  herbicidal effect rating, CYPIR: 0.0
CYPIR (Rice Flatsedge); 0.1250 kg/ha
  herbicidal effect rating, CYPIR: 3.0
CYPIR (Rice Flatsedge); 0.2500 kg/ha
  herbicidal effect rating, CYPIR: 4.0
[4]; rate 0.0156 kg/ha
  Herbicidal rating TRZAWR: 2.5
[4]; rate 0.0313 kg/ha
  Herbicidal rating TRZAWR: 3.5
[4]; rate 0.0625 kg/ha
  Herbicidal rating TRZAWR: 3.5
[5]; rate 0.0156 kg/ha
  Herbicidal rating CHEAL: 3.0
[5]; rate 0.0313 kg/ha
  Herbicidal rating CHEAL: 4.0
[5]; rate 0.0625 kg/ha
  Herbicidal rating CHEAL: 5.0
ABUTH (Velvetleaf); rate 0.0156 kg/ha
  Herbicidal rating ABUTH: 9.0
ABUTH (Velvetleaf); rate 0.0313 kg/ha
  Herbicidal rating ABUTH: 9.0
ABUTH (Velvetleaf); rate 0.0625 kg/ha
  Herbicidal rating ABUTH: 9.0
GALAP (Galium); 0.0156 kg/ha
  Preemergence herbicidal rating GALAP: 0.0
GALAP (Galium); 0.0313 kg/ha
  Preemergence herbicidal rating GALAP: 0.0
GALAP (Galium); 0.0625 kg/ha
  Preemergence herbicidal rating GALAP: 1.0
GALAP (Galium); 0.1250 kg/ha
  Preemergence herbicidal rating GALAP: 5.0
GALAP (Galium); 0.2500 kg/ha
  Preemergence herbicidal rating GALAP: 5.0
